Here are results for two compounds from publication PMC8187380, “Lipophilic nanocrystal prodrug-release defines the extended pharmacokinetic profiles of a year-long cabotegravir” (Nature Communications, 2021).

Molecules are shown by their SMILES. Read-outs that look alike come from different tables or passages of the source.

A short description of series [1]: Plasma/blood PK after single IM injection in male Balb/cJ mice (UNMC). The class given is in vivo.
Experimental: In mice, inguinal, axillary, branchial, and cervical lymph nodes were collected and pooled, while in rats only cervical lymph nodes were collected. Following injection, blood samples were collected at 4 h, days 1, 2, 4, 7, 14, 28, 42, and 56 and then monthly for 12 months into EDTA tubes (blood sample time points were evenly distributed between the four groups). Fifty μl of blood was immediately transferred into 950 μl methanol (containing 0.1% FA and 2.5 mM AF), vortexed, and stored at −80 °C until drug analysis. The remaining portion of the blood samples were centrifuged at 2000 × g for 5 min for plasma collection, which was stored at −80 °C until drug analysis. […] Plasma samples were collected up to day 672 and CAB and M2CAB quantification were performed by LC-MS/MS.
For blood samples, 50 µl blood collected in 950 µl of methanol was vortexed, centrifuged at 16,000 × g for 10 min at 4 °C, and 50 µl supernatant was aspirated, mixed with 50 µl IS [20 ng/ml d3-dolutegravir (d3-DTG) and 40 ng/ml stearoylated darunavir (SDRV)] in 70% methanol (containing 0.1% FA and 2.5 mM AF). d3-DTG was used as the IS (final concentration = 10 ng/ml) for the quantification of CAB, and SDRV (final concentration = 20 ng/ml) was used as the IS for quantification of M2CAB. Ten µl of the sample was analyzed by LC-MS/MS for CAB and M2CAB. […]
A short description of series [2]: Chemical (pH) stability of unformulated M2CAB. It is filed as physicochemical. As to conditions: 37 °C, 24 h, 1 μM. The procedure:
Next, we assessed the chemical stability of the solubilized form of M2CAB at a range of pHs [pH 1.0 (0.1 M HCl), pH 7.4 (PBS), pH 8.3 (heat-inactivated plasma) and pH 11.0 (0.1 M NaOH)]. […] At 24 h, percent M2CAB recovered was 87, 52, 5, and 2 at pH 1.0, pH 7.4, pH 8.3 and pH 11.0, respectively (Supplementary Fig. 3). Reductions in M2CAB prodrug concentrations paralleled native CAB formation, indicating the hydrolysis of the prodrug M2CAB into parent CAB.
Supplementary Figure 3. M2CAB pH stability. Chemical stability profile of M2CAB at pH 1.0 (0.1 M HCl), pH 7.4 (PBS), pH 8.3 (heat inactivated plasma) and pH 11.0 (0.1 M NaOH) at 1 μM drug concentration. (a) Percent M2CAB remaining vs. time profile for M2CAB; (b) Percent CAB formation vs. time profile from M2CAB. Data are expressed as mean (N = 2 replicates per time point). Each experiment was repeated independently two times with equivalent results.
(1 picture or pasted object on this page, not shown here)

Series [3] is described as follows: Metabolic stability in blood. The following applies: for Stability in blood: 24 h. The class given is in vitro ADME, mouse, rat, rabbit, monkey, dog, human. The procedure: […] The samples were then centrifuged at 16,000 × g for 10 min after which 10 µl of the supernatant was mixed with 80% methanol (containing 0.1% FA and 2.5 mM AF) containing an internal standard (IS) and analyzed by LC-MS/MS. For the time zero start time, a 100 µl of ice-cold blood was spiked with M2CAB and immediately 0.9 ml of methanol (containing 0.1% FA and 2.5 mM AF) was added. Heat-inactivated plasma was incubated at the same conditions and used as negative controls to differentiate chemical versus metabolic stability.

Series [4] in a line: Metabolic stability in liver S9 fractions. The class given is in vitro ADME, mouse, rat, rabbit, monkey, dog, human. The following applies: six species, 2 h incubation, 1 µM. The procedure: The metabolic stabilities of CAB and M2CAB were determined using mouse, rat, rabbit, dog, monkey, and human liver S9 fractions (XenoTech, LLC, Lenexa, KS, USA). Briefly, CAB and M2CAB were incubated at 1 µM in a 100 µl mixture containing S9 fractions at 1 mg/ml protein concentration, NADPH (1 mM), saccharolactone (5 mM), uridine 5′-diphospho-glucuronic acid (UDPGA) (1 mM), and 3′-phosphoadenosin-5′-phosphosulphate (PAPS) ([…]) in PBS (100 mM, pH 7.4) at 37 °C. For each time point (0, 30, and 120 min), reactions were quenched by adding 0.9 ml of methanol (containing 0.1% FA and 2.5 mM AF), followed by centrifugation at 15,000 × g for 10 min. Ten microliters of the supernatants were then analyzed by LC-MS/MS. Heat-inactivated S9 fractions were incubated at the same conditions and used as negative controls. Hydroxycoumarin (7-HC) metabolites including 7-HC-glucuronide and 7-HC-sulfate, and the testosterone metabolite 6β-hydroxytestosterone were used as positive controls for phase I and phase II metabolism.

The nature of series [5]: Metabolic stability in rat tissue homogenates. The class given is in vitro ADME. How it is done:
For metabolic stability in tissues, freshly collected rat liver, spleen, muscle, and lymph node tissues were homogenized in five-volumes of PBS (w/v). […] At different time points (0, 30 min, 2 h, and 6 h), 0.9 ml of methanol (containing 0.1% FA and 2.5 mM AF) was added to each sample and vortexed for 3 min. Samples were centrifuged at 16,000 × g for 10 min, 10 µl supernatant was mixed with 80% methanol (containing 0.1% FA and 2.5 mM AF) containing IS and analyzed by LC-MS/MS.

Series [6] has as its system human monocyte-derived macrophages (MDMs). Put plainly: Cellular uptake, retention and release in macrophages. The class given is cell-based. The following applies: for Percent taken up by MDMs: 8 h, 10 µM. The procedure:
Human peripheral blood monocytes were obtained by leukapheresis from HIV-1,2 and hepatitis B seronegative donors and purified by centrifugal elutriation. Monocytes were cultured for the first seven days in macrophage colony stimulating factor enriched media (MCSF, 1000 U/ml) to facilitate cell vitality and differentiation into macrophages[15],[29]. […] Cells were maintained in clear flat-bottom 12-well plates at 37 °C in a 5% CO2 incubator at a density of 1.0 × 10^6 cells per well. Half-culture media was replaced with fresh media every other day. After differentiation, MDM were utilized for CAB prodrug or drug nanoparticle uptake, retention and release. […] At days 1, 5, 10, 15, 20, and 30, adherent MDM were washed twice with PBS, scraped into PBS, and counted using an Invitrogen Countess Automated Cell Counter (Carlsbad, CA). Cell suspension was then centrifuged at 900 × g for 8 min at 4 °C. […] To quantify release kinetics, drug concentrations were measured in samples collected from the culture media from the same retention experiment using preloaded MDMs, at the same time when cells were harvested to quantify intracellular drug retention.

Series [7] is described as follows: Stability in macrophage cell culture media and MDM-cell lysate. It is filed as in vitro ADME, human. The following applies: M2CAB solution.
A further series concerns HIV-1. The following applies: no reference given; cited from earlier work.
The conditions of series [8]: cited from earlier work.
On the set-up of series [9]: method as in PMID 30387005. The following applies: in water; cited from earlier work.
The conditions of series [10]: macaques; cited from earlier work.
The subject of another series is SHIV. On the set-up: method as in PMID 24594934. The following applies: NHP, cited from earlier work.
On the set-up of series [11]: method as in PMID 26340566, PMID 26049948. As to conditions: cited from earlier work.
A further series concerns CYP450. On the set-up: method as in PMID 26340566, PMID 26049948. As to conditions: cited from earlier work.

On to `CCCCCCCCCCCCCCCCCC(=O)Oc1c2n(cc(C(=O)NCc3ccc(F)cc3F)c1=O)C[C@H]1OC[C@H](C)N1C2=O` [M2CAB], for which the “Blood concentration of the prodrug as percent of CAB” value in [1] (mice and rats, after NM2CAB) was less than 1%. For the same compound, the “Percent M2CAB recovered” value is reported as 87% in series [2] (pH 1.0 (0.1 M HCl)), 52% in series [2] (pH 7.4 (PBS)), 5% in [2] (pH 8.3 (heat-inactivated plasma)) and 2% in series [2] (pH 11.0 (0.1 M NaOH)). Also, in series [3] (all species, 1 µM, 37 °C), the Stability in blood result is listed as “unstable”. Besides, the “Percent of M2CAB hydrolyzed” value in [3] (blood of dog, monkey, mouse, rat, rabbit, human, after 6 h, 1 µM, 37 °C) is reported as “Greater than 80%”. Further, the “Time within which M2CAB was hydrolyzed into the parent CAB” value in [3] (blood, all species) is on record as no more than 6 h. The “Stability in heat-inactivated plasma” value in series [3] (control, 1 µM, 37 °C) is given as “unstable”. The “Percent of M2CAB lost” value in series [4] is given as less than 25%. The “Stability in heat-inactivated liver homogenate” value in series [5] (control) was “unstable”. Further, in series [5] (rat tissue homogenates, after 6 h incubation, 1 µM), the “Percent of M2CAB remaining/recovered” value is on record as 50–80%. Moreover, in series [6], the “Percent taken up by MDMs” value is reported as “up to 30%”. Further, the “Percent released into the media (recovered as CAB)” value in series [6] (MDMs, within days) is reported as less than 95%. The “Percent of intracellular drug retained by MDMs” value in series [6] (one month after 8 h loading at 10 µM) amounted to 4%. For the same compound, the “Time to complete hydrolysis into CAB in cell lysates” value in [7] is on record as no more than 7 days. In addition, the “Time to complete hydrolysis into CAB in media” value in series [7] is no more than 3 days.
In the case of `C[C@H]1CO[C@@H]2Cn3cc(C(=O)NCc4ccc(F)cc4F)c(=O)c(O)c3C(=O)N12` [CAB, cabotegravir], in series [1] (all samples (mice and rats)), the “Fold CAB blood concentration lower than plasma concentration” value was roughly 2 fold. Moreover, in [3] (all species, 1 µM, 37 °C), the Stability in blood entry was “stable”. Besides, in series [3] (blood, all six species, by 24 h), the “Percent of CAB recovered” value was “more than 90%”. Besides, the “Percent taken up by MDMs” value in series [6] is no more than 0.1%. In addition, the “Intracellular CAB levels in MDMs” value in series [6] (after 8 h drug loading at 10 µM) is given as “below or at the limit of detection within hours”. In the series with HIV-1, the “Protein-adjusted 90% inhibitory concentration (PA-IC90)” value was 0.166 µg/mL. Besides, in [8], the Oral bioavailability entry is recorded as “near-complete” and the Plasma half-life was 30 to 40 h. In series [8] (humans), the “Eliminated unchanged in feces” value is “up to 50%”, the “Glucuronide metabolites in urine” value is 27%, the Terminal phase half-life is 504 to 1200 h and the “Unidentified metabolites in feces” value is recorded as 10%. The “tmax (oral absorption)” value in [8] (oral) is 1.5 to 2 h. In series [9], the Aqueous solubility was 15 µg/mL. Moreover, the Terminal phase half-life in [10] is 72 to 288 h. Also, the “Protection against intrarectal SHIV challenge” value in the series with SHIV (plasma CAB concentrations >3×PA-IC90) is given as 100%. In addition, in the series on SHIV (plasma CAB concentrations ≥1×PA-IC90), the “Protection against intrarectal SHIV challenge” value is recorded as 97%. Also, in series [11], the Membrane permeability entry is “high”. In the series on CYP450, the “Affinity for CYP450” value was “low”.
